Measurements reported in ChEMBL document CHEMBL1201862, “PubChem BioAssay data set” (2004).
Activity calls are given as the source filed them.

Key:
[1] = HGIII-sPLA2 enzyme inhibition potency – biochemical, QFRET, IC50, dose response (AID 743457);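 further: green fluorescence rise as the enzyme cleaves BODIPY PC-A2 in liposomes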
[2] = target: Disintegrin and metalloproteinase domain-containing protein 17 (Homo sapiens, UniProt P78536); assay: inhibition of ADAM17 substrate cleavage – biochemical, quenched FRET substrate, counter-screen for ADAM10 exosite inhibitor project, dose response (AID 743253)
Chain of Disintegrin and metalloproteinase domain-containing protein 17 (P78536 whole entry, the tested form may be a part): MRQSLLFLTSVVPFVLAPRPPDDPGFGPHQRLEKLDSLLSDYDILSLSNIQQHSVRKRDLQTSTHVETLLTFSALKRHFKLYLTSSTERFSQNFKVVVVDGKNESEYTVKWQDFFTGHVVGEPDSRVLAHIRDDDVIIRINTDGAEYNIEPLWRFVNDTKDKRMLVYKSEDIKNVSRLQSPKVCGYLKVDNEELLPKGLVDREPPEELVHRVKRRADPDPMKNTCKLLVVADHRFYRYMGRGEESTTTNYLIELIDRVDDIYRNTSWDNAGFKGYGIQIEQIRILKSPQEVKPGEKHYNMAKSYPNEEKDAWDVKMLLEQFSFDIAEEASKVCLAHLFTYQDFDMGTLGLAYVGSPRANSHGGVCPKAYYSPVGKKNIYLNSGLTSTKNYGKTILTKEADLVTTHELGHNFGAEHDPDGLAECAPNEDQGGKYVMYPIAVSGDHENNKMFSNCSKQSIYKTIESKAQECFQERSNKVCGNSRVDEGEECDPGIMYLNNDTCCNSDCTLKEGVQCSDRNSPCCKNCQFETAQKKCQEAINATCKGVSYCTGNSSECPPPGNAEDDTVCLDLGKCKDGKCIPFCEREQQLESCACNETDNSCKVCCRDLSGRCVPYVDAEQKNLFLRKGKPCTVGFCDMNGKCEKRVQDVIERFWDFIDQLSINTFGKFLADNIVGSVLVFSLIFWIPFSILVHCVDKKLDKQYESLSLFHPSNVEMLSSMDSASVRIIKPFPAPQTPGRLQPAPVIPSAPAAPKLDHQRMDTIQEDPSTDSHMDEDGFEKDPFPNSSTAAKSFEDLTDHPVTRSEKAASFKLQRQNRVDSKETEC

[3] = potency of ADAM10 substrate cleavage blockers – biochemical, QFRET, dose response (AID 743254);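 further: ADAM10 enzyme with the DM2 quenched FRET peptide as substrate; EDANS fluorescence gain as the protease cuts the substrate; inhibitor potency against ADAM10 proteolytic activity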
[4] = Luminescence Cell-Based Dose Retest to Confirm Inhibitors of Cancer Stem Cells. [Related pubchem assays (depositor defined):AID2717, AID2721]; format: functional; details: Homo sapiens
[5] = target: T1, Long-chain-fatty-acid--AMP ligase FadD28 (Mycobacterium tuberculosis, UniProt P9WQ59); assay: Fluorescence polarization aasay to screen for inhibitors that compete for the binding of FadD28 to a bisubstrate Measured in Biochemical System Using Plate Reader - 2147-01_Inhibitor_Dose_CherryPick_Activity.; format: functional, Mycobacterium tuberculosis H37Rv
T1 sequence (P9WQ59 whole entry): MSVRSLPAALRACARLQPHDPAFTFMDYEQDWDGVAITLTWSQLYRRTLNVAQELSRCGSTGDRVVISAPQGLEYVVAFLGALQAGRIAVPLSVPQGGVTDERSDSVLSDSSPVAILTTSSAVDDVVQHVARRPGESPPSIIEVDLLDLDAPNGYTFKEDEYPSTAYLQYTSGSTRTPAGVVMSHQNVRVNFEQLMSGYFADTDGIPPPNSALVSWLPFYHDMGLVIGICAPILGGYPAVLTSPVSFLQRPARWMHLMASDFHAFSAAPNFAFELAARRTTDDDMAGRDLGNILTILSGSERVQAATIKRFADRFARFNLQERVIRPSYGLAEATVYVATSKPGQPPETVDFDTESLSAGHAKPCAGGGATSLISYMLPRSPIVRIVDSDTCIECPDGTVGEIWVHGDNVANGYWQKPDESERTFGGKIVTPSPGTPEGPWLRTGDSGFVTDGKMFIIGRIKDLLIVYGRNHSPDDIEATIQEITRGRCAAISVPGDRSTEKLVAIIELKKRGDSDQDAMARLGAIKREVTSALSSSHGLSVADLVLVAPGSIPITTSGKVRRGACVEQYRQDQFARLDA

[6] = target: T2, Endoribonuclease toxin MazF (Escherichia coli K-12, UniProt P0AE70); assay: substrate-only fluorescence increase artefacts – biochemical, single-stranded RNase substrate, counter-screen for MazEF activator project, dose response (AID 588502); format: functional
T2 sequence (P0AE70 whole entry): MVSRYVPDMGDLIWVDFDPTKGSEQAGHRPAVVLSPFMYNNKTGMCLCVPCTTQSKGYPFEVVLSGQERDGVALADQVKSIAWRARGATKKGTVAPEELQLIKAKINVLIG

[7] = target: T3, DNA repair protein RAD52 homolog (Homo sapiens, UniProt P43351); format: functional, biochemical
T3 sequence (P43351 whole entry): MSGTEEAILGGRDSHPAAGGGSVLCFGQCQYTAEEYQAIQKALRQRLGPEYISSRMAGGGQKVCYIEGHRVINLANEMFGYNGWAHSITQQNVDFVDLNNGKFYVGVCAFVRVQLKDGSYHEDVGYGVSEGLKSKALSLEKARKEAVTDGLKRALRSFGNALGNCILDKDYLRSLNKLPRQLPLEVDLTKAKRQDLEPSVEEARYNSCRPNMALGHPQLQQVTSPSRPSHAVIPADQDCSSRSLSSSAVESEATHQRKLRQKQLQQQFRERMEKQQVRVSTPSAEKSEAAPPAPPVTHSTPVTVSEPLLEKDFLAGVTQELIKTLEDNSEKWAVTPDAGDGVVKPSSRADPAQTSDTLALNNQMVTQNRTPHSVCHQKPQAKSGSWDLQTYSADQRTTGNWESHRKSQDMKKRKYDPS

[8] = target: T2, Endoribonuclease toxin MazF; assay: activation of MazEF endoribonuclease cleavage – biochemical, fluorescence, single-stranded RNA substrate, uHTS hits, dose response (AID 588481); format: functional
Cytochrome P450 2C19 = Cytochrome P450 2C19 (Homo sapiens, UniProt P33261); assay: Cytochrome panel assay with activity outcomes. Panel member name: p450-cyp2c19 Compounds with AC50 equal or less than 10 uM are considered active; format: functional; details: read-out: AC50
Chain of Cytochrome P450 2C19 (P33261 whole entry): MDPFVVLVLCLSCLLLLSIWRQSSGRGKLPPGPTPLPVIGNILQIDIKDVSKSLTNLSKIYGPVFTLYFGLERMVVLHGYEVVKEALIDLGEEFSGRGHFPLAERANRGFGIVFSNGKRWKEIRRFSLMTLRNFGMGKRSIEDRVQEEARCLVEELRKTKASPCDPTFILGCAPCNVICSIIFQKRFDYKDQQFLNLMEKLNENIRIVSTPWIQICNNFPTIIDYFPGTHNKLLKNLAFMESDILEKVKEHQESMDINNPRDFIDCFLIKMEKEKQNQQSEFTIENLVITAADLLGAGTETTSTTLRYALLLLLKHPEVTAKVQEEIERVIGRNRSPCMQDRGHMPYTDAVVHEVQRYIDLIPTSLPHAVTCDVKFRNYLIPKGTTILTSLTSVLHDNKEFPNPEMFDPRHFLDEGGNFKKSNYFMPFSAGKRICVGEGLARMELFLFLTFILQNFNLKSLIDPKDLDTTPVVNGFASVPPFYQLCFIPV

Streptokinase A = target: T4, Streptokinase A (Streptococcus pyogenes serotype M1, UniProt P10520); assay: viability-normalized secreted streptokinase activity reduction – plasminogen activation absorbance, OD405, dose response (AID 1914); format: functional, Streptococcus pyogenes M1 GAS;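 further: secreted streptokinase activity via plasminogen activation per viability signal from cell pellet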
T4 sequence (P10520 whole entry): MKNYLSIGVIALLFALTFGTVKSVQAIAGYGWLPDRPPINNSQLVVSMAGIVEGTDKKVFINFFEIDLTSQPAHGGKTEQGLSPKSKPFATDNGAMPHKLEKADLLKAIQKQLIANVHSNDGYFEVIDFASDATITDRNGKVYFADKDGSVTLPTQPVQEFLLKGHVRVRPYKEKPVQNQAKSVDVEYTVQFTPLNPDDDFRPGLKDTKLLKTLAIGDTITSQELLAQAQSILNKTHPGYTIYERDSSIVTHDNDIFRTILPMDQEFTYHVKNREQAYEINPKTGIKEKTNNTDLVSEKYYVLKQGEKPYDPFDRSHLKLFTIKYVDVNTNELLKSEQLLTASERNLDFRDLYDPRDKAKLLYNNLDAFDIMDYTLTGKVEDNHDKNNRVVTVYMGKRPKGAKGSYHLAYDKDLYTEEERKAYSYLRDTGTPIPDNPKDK

Protein RecA = target: T5, Protein RecA (Mycobacterium tuberculosis, UniProt P9WHJ3); assay: Fluorescence Cell-Free Homogeneous Dose Retest to Identify Inhibitors of RecA-Intein Splicing Activity. [Related pubchem assays (depositor defined):AID2097, AID2223, AID489010, AID492950]; format: functional
T5 sequence (P9WHJ3 whole entry): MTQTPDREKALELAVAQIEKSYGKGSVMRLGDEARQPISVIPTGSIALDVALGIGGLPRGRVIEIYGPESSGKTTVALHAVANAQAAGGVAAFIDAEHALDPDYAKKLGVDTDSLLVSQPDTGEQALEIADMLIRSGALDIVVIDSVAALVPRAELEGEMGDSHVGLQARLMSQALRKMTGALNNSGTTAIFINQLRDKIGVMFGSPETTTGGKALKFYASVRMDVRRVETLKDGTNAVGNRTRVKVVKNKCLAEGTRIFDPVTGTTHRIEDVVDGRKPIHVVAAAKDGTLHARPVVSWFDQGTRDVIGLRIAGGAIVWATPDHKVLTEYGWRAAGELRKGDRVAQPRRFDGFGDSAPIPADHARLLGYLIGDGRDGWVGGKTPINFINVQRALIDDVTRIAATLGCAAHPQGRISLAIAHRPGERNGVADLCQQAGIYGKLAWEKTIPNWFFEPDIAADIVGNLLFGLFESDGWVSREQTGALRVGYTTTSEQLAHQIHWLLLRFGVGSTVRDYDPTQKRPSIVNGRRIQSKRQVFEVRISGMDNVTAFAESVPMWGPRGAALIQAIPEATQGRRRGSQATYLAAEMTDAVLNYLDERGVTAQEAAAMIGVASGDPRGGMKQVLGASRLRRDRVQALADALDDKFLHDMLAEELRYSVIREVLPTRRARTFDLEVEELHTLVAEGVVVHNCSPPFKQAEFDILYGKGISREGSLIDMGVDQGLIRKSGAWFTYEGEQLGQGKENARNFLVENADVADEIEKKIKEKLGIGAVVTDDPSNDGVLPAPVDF

[9] = test system: Streptococcus sp. 'group A'; assay: Streptococcus pyogenes SK(-)GAS viability under kanamycin – luminescence, BacTiterGlo, confirmation, counter-screen for streptokinase expression inhibitor project, dose response (AID 1900); format: functional, organism-based
Streptococcus = assay: GAS UMAA2166 growth inhibition – luminescence, BacTiterGlo, counter-screen for streptokinase expression inhibitor project, dose response (AID 1915); format: functional, organism-based;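 further: potency for reduction of bacterial viability or growth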
[10] = target: T6, Replicative DNA helicase DnaB (Mycobacterium tuberculosis, UniProt P9WMR3); assay: DnaB intein splicing inhibitors, dose response, biochemical, cell-free fluorescence (AID 449749); format: functional
T6 sequence (P9WMR3 whole entry): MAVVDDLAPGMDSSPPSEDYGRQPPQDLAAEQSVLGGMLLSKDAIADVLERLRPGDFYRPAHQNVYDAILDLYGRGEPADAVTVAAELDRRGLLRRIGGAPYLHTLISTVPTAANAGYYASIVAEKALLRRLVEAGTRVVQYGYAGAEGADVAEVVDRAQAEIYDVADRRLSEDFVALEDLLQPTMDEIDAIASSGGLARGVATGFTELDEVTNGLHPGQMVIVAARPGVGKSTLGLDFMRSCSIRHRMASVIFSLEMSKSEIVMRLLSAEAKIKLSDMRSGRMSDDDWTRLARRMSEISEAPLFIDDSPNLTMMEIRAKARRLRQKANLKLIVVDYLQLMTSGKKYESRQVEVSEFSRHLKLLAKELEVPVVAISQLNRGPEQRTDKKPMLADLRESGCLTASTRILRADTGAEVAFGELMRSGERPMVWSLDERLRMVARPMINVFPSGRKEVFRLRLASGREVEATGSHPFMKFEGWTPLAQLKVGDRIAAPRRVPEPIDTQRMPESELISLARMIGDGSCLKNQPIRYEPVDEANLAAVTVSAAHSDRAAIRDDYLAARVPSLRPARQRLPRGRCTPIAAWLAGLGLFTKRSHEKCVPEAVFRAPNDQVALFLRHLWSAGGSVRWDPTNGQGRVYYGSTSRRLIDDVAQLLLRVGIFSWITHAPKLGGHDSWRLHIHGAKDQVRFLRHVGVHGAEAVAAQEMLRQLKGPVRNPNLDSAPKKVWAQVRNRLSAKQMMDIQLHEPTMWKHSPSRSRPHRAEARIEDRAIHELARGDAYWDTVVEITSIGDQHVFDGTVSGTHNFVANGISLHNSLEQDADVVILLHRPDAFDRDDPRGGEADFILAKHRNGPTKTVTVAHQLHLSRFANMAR

Paired box protein Pax-8 = Paired box protein Pax-8 (Homo sapiens, UniProt Q06710); assay: PAX8 transcriptional activity inhibition in RMG-I – RMG-I cells, luciferase, cherry-pick, dose response (AID 687027); format: functional, cell-based;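 further: luciferase reporter driven by Pax8 target thyroperoxidase promoter measured by SteadyGlo luminescence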
Chain of Paired box protein Pax-8 (Q06710 whole entry): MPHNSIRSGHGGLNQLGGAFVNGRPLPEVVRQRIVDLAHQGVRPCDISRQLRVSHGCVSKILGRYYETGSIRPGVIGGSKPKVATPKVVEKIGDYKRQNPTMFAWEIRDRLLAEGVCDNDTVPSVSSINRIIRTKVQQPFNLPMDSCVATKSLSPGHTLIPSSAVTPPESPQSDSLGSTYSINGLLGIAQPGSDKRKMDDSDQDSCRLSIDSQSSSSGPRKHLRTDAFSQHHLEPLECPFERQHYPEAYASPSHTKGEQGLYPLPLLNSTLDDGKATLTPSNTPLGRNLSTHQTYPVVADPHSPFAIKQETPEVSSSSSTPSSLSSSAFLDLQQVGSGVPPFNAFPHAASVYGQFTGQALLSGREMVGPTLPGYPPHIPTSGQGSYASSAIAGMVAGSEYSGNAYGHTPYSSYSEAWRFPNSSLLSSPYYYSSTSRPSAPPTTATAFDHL

[11] = A2780 cell killing – plate reader, dry powder samples, cytotoxicity control, dose response (AID 743046); format: functional, cell-based
[12] = IGROV1 cell killing – plate reader, dry powder samples, PAX8 inhibitor project, dose response (AID 743043); format: functional, cell-based; details: IGROV-1
[13] = OVCAR8 cell viability loss – plate reader, dry powder samples, PAX8 project, dose response (AID 743197); format: functional, cell-based; details: OVCAR-8
[14] = OVCAR-3 cell viability loss – plate reader, dry powder samples, PAX8 inhibitor project, dose response (AID 743044); format: functional, cell-based
Caspase-6 = target: T7, Caspase-6 (Homo sapiens, UniProt P55212); assay: inhibition of CASP6 peptide cleavage – biochemical, VEID-R110 fluorescence, cherry-pick, dose response (AID 720632)
T7 sequence (P55212 whole entry): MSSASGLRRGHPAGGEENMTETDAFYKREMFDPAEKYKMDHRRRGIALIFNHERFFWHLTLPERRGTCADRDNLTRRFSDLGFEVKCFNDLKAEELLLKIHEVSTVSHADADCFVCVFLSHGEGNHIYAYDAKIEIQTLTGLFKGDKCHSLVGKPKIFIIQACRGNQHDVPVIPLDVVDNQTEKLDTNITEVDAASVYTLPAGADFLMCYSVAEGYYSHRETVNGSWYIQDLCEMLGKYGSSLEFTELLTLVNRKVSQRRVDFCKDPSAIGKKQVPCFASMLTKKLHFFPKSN

O=C(NN=C(S)NC1CCCCC1)c1ccccc1O
IC50 [1]: > 122 µM (inactive)

Cc1ccc(-n2c(SCC(=O)Nc3cccc(S(N)(=O)=O)c3)nc3ccccc32)cc1
IC50 [2]: > 69.5 µM (inactive)
IC50 [3]: > 69.5 µM (inactive)

O=C(N=CNOCc1ccc(Cl)cc1Cl)NOCc1ncc(C(F)(F)F)cc1Cl
AC50 [4]: 4.02 µM (active)
IC50 [3]: 12.9 µM (inactive)

O=C(NC=NOCc1ccc(Cl)cc1Cl)NOCc1ncc(C(F)(F)F)cc1Cl
IC50 [2]: > 69.5 µM (inactive)

O=C(NNC(=S)NC(=O)c1ccccc1[N+](=O)[O-])c1ccccc1Cl
IC50 [1]: 115 µM (inactive)

Cc1ccccc1OCC(=O)NNC(=S)NC(=O)c1ccccc1[N+](=O)[O-]
IC50 [1]: 64.9 µM (inactive)

CN(c1ccc(C(=O)NCCSCc2ccccc2)cc1)S(=O)(=O)c1ccccc1
AC50 [5]: > 100 µM (inactive)

CN(C)CCCn1c2c3ccccc3ccc2c2oc(=O)c3ccccc3c21
EC50 [6]: > 99 µM (inactive)
AC50 [7]: < 0.681 µM (active)
EC50 [8]: > 99 µM (inactive)
AC50 (Cytochrome P450 2C19): 0.794 µM (inconclusive)

Cc1ccc(N/C(C(Cl)=C(Cl)Cl)=C(/Cl)[N+](=O)[O-])c(C)c1
AC50 [5]: > 100 µM (inactive)

CC(C)C[C@H](NC(=O)c1[nH]cnc1C(=O)NC(c1ccccc1)c1ccccc1)C(=O)OCc1ccccc1
IC50 [3]: 19.4 µM (inactive)

CC(C)C[C@H](NC(=O)c1nc[nH]c1C(=O)NC(c1ccccc1)c1ccccc1)C(=O)OCc1ccccc1
IC50 [2]: > 69.5 µM (inactive)

CC1=NN(c2nc(-c3ccccc3)cs2)C(=O)C1
EC50 (Streptokinase A): 10 µM (active)
EC50 (Protein RecA): 6.75 µM (active)
EC50 [9]: 16.9 µM (active)
AC50 [5]: > 100 µM (inactive)
EC50 (Streptococcus): > 150 µM (not active)
AC50 [10]: 7.99 µM (active)

Cc1ccc2c(c1)NC(=O)[C@@]1(C)[C@@H](c3ccccc3)[C@H]3COc4ccccc4[C@@H]3N1C2=O
IC50 [2]: > 69.5 µM (inactive)
IC50 [3]: > 69.5 µM (inactive)

C[C@H]1CN([C@@H](C)CO)C(=O)c2cc(NS(=O)(=O)c3ccccc3)ccc2O[C@@H]1CN(C)Cc1ccc(Oc2ccccc2)cc1
AC50 (Paired box protein Pax-8): 15.7 µM (active)
AC50 [11]: 8.52 µM (active)

C[C@@H]1CCCCO[C@H](CN(C)Cc2ccc(C(F)(F)F)cc2)[C@H](C)CN([C@H](C)CO)C(=O)c2cc(NC(=O)Cc3ccccc3)ccc2O1
AC50 [12]: 43.9 µM (active)
AC50 [13]: 34.7 µM (active)
AC50 [14]: 26.8 µM (active)
AC50 (Paired box protein Pax-8): 6.16 µM (active)

C[C@@H]1CCCCO[C@@H](CN(C)C(=O)NC2CCCCC2)[C@H](C)CN([C@@H](C)CO)C(=O)c2cc(NC(=O)Nc3ccc(C(F)(F)F)cc3)ccc2O1
AC50 [13]: 47.1 µM (active)
AC50 [14]: 38 µM (active)
AC50 (Paired box protein Pax-8): 3.5 µM (active)
AC50 [11]: 5.99 µM (active)

CC(=O)Nc1cccc2cc(S(=O)(=O)O)ccc12
AC50 (Caspase-6): 15.6 µM (active)
